Counter-ions that a name gives are not always drawn.
molecular target: T1, His6-JNK2 (Homo sapiens, UniProt P45984); experiment: JNK2 Assay (c-Jun phosphorylation, 32P-ATP filter plate); format: biochemical; settings: c-Jun phosphorylation reduced to 50% of control; GST-c-Jun(1-79), 11 μM ATP; read-out: IC50 value in the JNK2 Assay
T1 construct: His6 (N)
Description: To 10 μL of the test compound in 20%/DMSO/80% dilutien buffer consisting of 20 mM HELPS (pH 7.6), 0.1 mM; EDTA, 2.5 mM magnesium chloride, 0.004% Triton×100, 2 μg/mL leupeptin, 20 mM β-glycerolphosphate, 0.1 mM sodium vanadate, and 2 mM DTT in water is added 30 μL of 50 ng His6-JNK2 in the same dilution buffer. The mixture is preincubated for 30 minutes at room temperature. Sixty microliter of 10 μg GST-c-Jun(1-79) in assay buffer consisting of 20 mM HEPES (pH 7.6), 50 mM sodium chloride, 0.1 mM EDTA, 24 mM magnesium chloride, 1 mM DTT, 25 mM PNPP, 0.05% Triton×100, 11 μM ATP, and 0.5 μCi γ-^32P ATP in water is added and the reaction is allowed to proceed for 1 hour at room temperature. The c-Jun phosphorylation is terminated by addition of 150 μL of 12.5% trichloroacetic acid. After 30 minutes, the precipitate is harvested onto a filter plate, diluted with 50 μL of the scintillation fluid and quantified by a counter. The IC50 values are calculated as the concentration of the test compound at which the c-Jun phosphorylation is reduced to 50% of the control value.

T1 sequence (P45984 whole entry): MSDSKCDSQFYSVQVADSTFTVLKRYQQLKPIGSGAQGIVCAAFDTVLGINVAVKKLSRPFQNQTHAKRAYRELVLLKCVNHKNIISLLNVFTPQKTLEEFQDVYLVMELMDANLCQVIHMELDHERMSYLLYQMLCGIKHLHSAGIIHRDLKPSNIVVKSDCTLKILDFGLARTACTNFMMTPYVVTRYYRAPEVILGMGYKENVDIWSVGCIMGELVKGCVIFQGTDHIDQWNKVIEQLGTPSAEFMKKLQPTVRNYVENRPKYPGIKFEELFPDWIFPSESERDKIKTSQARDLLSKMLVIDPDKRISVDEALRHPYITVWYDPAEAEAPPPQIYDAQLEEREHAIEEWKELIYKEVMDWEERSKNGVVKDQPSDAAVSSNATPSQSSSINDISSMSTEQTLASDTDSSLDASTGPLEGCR

NC(=O)c1ccc(Nc2nccc(-c3ccc(N4CCCCC4)cc3)n2)cc1 [Compound 3-26] and NC(=O)c1ccc(Nc2nccc(-c3ccc(N4CCOCC4)cc3)n2)cc1 [Compound 3-30] cannot be ordered by IC50: ≤ 10 µM for the first, ≤ 10 µM for the second.

O=C(c1ccc(Nc2nccc(-c3ccc(Cl)cc3)n2)cc1)N1CCN(c2ccc(F)cc2)CC1 [Compound 17-149] and O=C(c1ccc(Nc2nccc(-c3ccc(Cl)cc3)n2)cc1)N1CCN(c2cccc(C(F)(F)F)c2)CC1 [Compound 17-143] cannot be ordered by IC50: ≤ 10 µM for the first, ≤ 10 µM for the second.

COCC(=O)NC1CCN(C(=O)c2ccc(Nc3nccc(-c4ccc(Cl)cc4)n3)cc2)CC1 [Compound 20-6] and CCOC(=O)N1CCN(C(=O)c2ccc(Nc3nccc(-c4ccc(Cl)cc4)n3)cc2)CC1 [Compound 17-137] cannot be ordered by IC50: ≤ 10 µM for the first, ≤ 1 µM for the second.

NC(=O)c1ccc(Nc2nccc(-c3ccc(C(=O)O)cc3)n2)cc1 [Compound 3-40] and NC(=O)c1ccc(Nc2nccc(-c3ccc(Cl)cc3)n2)cc1 [Compound 1, 4-{[4-(4-Chlorophenyl)pyrimidin-2-yl]amino}benzamide] cannot be ordered by IC50: ≤ 1 µM for the first, ≤ 10 µM for the second.

NC(=O)c1ccc(Nc2nccc(-c3ccc(-n4ccnc4)cc3)n2)cc1 [Compound 3-36] and CN(C)c1ccc(-c2ccnc(Nc3ccc(C(N)=O)cc3)n2)cc1 [Compound 3-29] cannot be ordered by IC50: ≤ 10 µM for the first, ≤ 10 µM for the second.

CC(C)NC(=O)CN1CCN(C(=O)c2ccc(Nc3nccc(-c4ccc(SCCCO)cc4)n3)cc2)CC1 [Compound 17-32] and CC(C)NC(=O)CN1CCN(C(=O)c2ccc(Nc3nccc(-c4ccc(Cl)cc4)n3)cc2)CC1 [Compound 17-141] cannot be ordered by IC50: ≤ 1 µM for the first, ≤ 1 µM for the second.

NC(=O)c1ccc(Nc2nccc(-c3ccccc3)n2)cc1 [Compound 3-4] and NC(=O)c1ccc(Nc2nccc(-c3ccc(SCCCO)cc3)n2)cc1 [Compound 3-14] cannot be ordered by IC50: ≤ 1 µM for the first, ≤ 1 µM for the second.

O=C(Nc1ccc2[nH]ncc2c1)c1ccc(Nc2nccc(-c3ccc(Cl)cc3)n2)cc1 [Compound 17-119] and CN(C)C(=O)c1ccc(Nc2nccc(-c3ccc(Cl)cc3)n2)cc1 [Compound 17-2] cannot be ordered by IC50: ≤ 10 µM for the first, ≤ 10 µM for the second.

CC(=O)N(C)C1CCN(C(=O)c2ccc(Nc3nccc(-c4ccc(Cl)cc4)n3)cc2)C1 (stereo not drawn) [Compound 17-163] and CC(=O)N1CCN(C(=O)c2ccc(Nc3nccc(-c4ccc(Cl)cc4)n3)cc2)CC1 [Compound 17-129] cannot be ordered by IC50: ≤ 10 µM for the first, ≤ 1 µM for the second.

CC(=O)NCCNC(=O)c1ccc(Nc2nccc(-c3ccc(Cl)cc3)n2)cc1 [Compound 17-22] and O=C(c1ccc(Nc2nccc(-c3ccc(Cl)cc3)n2)cc1)N1CCC[C@@H]1CO [Compound 17-27] cannot be ordered by IC50: ≤ 1 µM for the first, ≤ 10 µM for the second.

O=C(c1ccc(Nc2nccc(-c3ccc(Cl)cc3)n2)cc1)N1CCC(N2CCCC2)CC1 [Compound 17-171] and O=C(c1ccc(Nc2nccc(-c3ccc(Cl)cc3)n2)cc1)N1CCNCC1 [Compound 18, 4-{[4-(4-Chlorophenyl)pyrimidin-2-yl]amino}benzoic acid piperazine amide hydrochloride] cannot be ordered by IC50: ≤ 1 µM for the first, ≤ 1 µM for the second.

COc1ccccc1N1CCN(C(=O)c2ccc(Nc3nccc(-c4ccc(Cl)cc4)n3)cc2)CC1 [Compound 17-135] and CN(Cc1ccccc1)C(=O)c1ccc(Nc2nccc(-c3ccc(Cl)cc3)n2)cc1 [Compound 17-157] cannot be ordered by IC50: ≤ 10 µM for the first, ≤ 10 µM for the second.

NC(=O)c1ccc(Nc2nccc(-c3ccc(S(=O)(=O)CCCO)cc3)n2)cc1 [Compound 3-15] and NC(=O)c1ccc(Nc2nccc(-c3ccc(SCCCN4CCOCC4)cc3)n2)cc1 [Compound 3-10] cannot be ordered by IC50: ≤ 1 µM for the first, ≤ 10 µM for the second.

CN(C)CCN(Cc1ccccc1)C(=O)c1ccc(Nc2nccc(-c3ccc(Cl)cc3)n2)cc1 [Compound 17-150] was tested, and the IC50 was ≤ 10 µM.

From US7429599B2, “Methods for treating or preventing an inflammatory or metabolic condition or inhibiting JNK” (Signal Pharmaceuticals, LLC, priority 2000, dated 2008)
